In ChEMBL document CHEMBL1201862, “PubChem BioAssay data set” (2004):
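How tested: cells in 96-well plates exposed to compound for 48 hours at five concentrations. GI50 is the concentration that inhibits growth by half.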 Active and inactive are the calls of the source. No stated cut-off is given here; in the data, active = GI50 up to about 1.1 µM and inactive = higher.

Columns and labels:
Test in all cases: inhibition of tumour cell growth, NCI panel, 48 h
UACC-62 = test system: UACC-62
OVCAR-4 = test system: OVCAR-4
Hs-578T = test system: Hs-578T
OVCAR-5 = test system: OVCAR-5
SF-268 = test system: SF-268
MOLT-4 = test system: MOLT-4
NCI-H226 = test system: NCI-H226
CAKI-1 = test system: CAKI-1
NCI-H460 = test system: NCI-H460
SR = test system: SR
ACHN = test system: ACHN
SK-OV-3 = test system: SK-OV-3
MDA-N = test system: MDA-N
TK-10 = test system: TK-10
HCT-116 = test system: HCT-116
UACC-257 = test system: UACC-257
MDA-MB-231 = test system: MDA-MB-231
SF-539 = test system: SF-539
HCC 2998 = test system: HCC 2998
A498 = test system: A498

SMILES | GI50 (UACC-62) | GI50 (OVCAR-4) | GI50 (Hs-578T) | GI50 (OVCAR-5) | GI50 (SF-268) | GI50 (MOLT-4) | GI50 (NCI-H226) | GI50 (CAKI-1) | GI50 (NCI-H460) | GI50 (SR) | GI50 (ACHN) | GI50 (SK-OV-3) | GI50 (MDA-N) | GI50 (TK-10) | GI50 (HCT-116) | GI50 (UACC-257) | GI50 (MDA-MB-231) | GI50 (SF-539) | GI50 (HCC 2998) | GI50 (A498)
CCOP(=O)(OCC)C(Cc1ccccc1)N=C(c1ccccc1)c1ccccc1 (stereo unspecified) | 13.3 µM (inactive) | 16.2 µM (inactive) | 11.2 µM (inactive) | 14.4 µM (inactive) | 17.8 µM (inactive) | 4.93 µM (inactive) | 14.2 µM (inactive) | 16.2 µM (inactive) | 14.8 µM (inactive) | 17.9 µM (inactive) | 14.9 µM (inactive) | 15.2 µM (inactive) | 14.6 µM (inactive) | 11.5 µM (inactive) | 14.6 µM (inactive) | 13.7 µM (inactive) | – | – | – | –
O=C(O)c1nc2ccc(C(F)(F)F)cc2nc1NCc1ccc(Cl)c(Cl)c1 | 17.1 µM (inactive) | 18.5 µM (inactive) | – | 13.5 µM (inactive) | – | 12.3 µM (inactive) | 17.3 µM (inactive) | 19.2 µM (inactive) | 16 µM (inactive) | 15.6 µM (inactive) | 15.4 µM (inactive) | 19.4 µM (inactive) | 19.6 µM (inactive) | – | 16.2 µM (inactive) | 21.2 µM (inactive) | 16.8 µM (inactive) | 19.5 µM (inactive) | 16.4 µM (inactive) | 17.5 µM (inactive)
CC1(C)CC(=O)C2=C(C1)OC1(CC2c2ccc(Cl)cc2)CC(c2ccc(Cl)cc2)C2=C(CC(C)(C)CC2=O)O1 (stereo unspecified) | 23.6 µM (inactive) | 6.78 µM (inactive) | 16.5 µM (inactive) | 26.9 µM (inactive) | 17.9 µM (inactive) | 3.13 µM (inactive) | 22.4 µM (inactive) | 26.9 µM (inactive) | 14.3 µM (inactive) | 4.83 µM (inactive) | 18.5 µM (inactive) | 12.1 µM (inactive) | – | 32.4 µM (inactive) | 12.2 µM (inactive) | 17 µM (inactive) | 24.4 µM (inactive) | 20.5 µM (inactive) | 16.3 µM (inactive) | 16 µM (inactive)
COc1ccc(/C=C2\CCC(C)C3=C(c4ccc(OC)c(OC)c4)C(C#N)=C(N)OC32)cc1OC (stereo unspecified) | 2.86 µM (inactive) | – | 4.42 µM (inactive) | 2.75 µM (inactive) | 9.77 µM (inactive) | 2.55 µM (inactive) | 2.39 µM (inactive) | 4.36 µM (inactive) | 3.03 µM (inactive) | – | 3.66 µM (inactive) | 3.42 µM (inactive) | 3.45 µM (inactive) | 4.04 µM (inactive) | 2.82 µM (inactive) | 4.18 µM (inactive) | 2.95 µM (inactive) | 1.55 µM (inactive) | – | 3.76 µM (inactive)
CC(C)CC(N)C(=O)O (stereo unspecified) | > 100 µM (inactive) | > 100 µM (inactive) | > 100 µM (inactive) | – | > 100 µM (inactive) | > 100 µM (inactive) | > 100 µM (inactive) | > 100 µM (inactive) | > 100 µM (inactive) | – | > 100 µM (inactive) | > 100 µM (inactive) | > 100 µM (inactive) | > 100 µM (inactive) | > 100 µM (inactive) | > 100 µM (inactive) | > 100 µM (inactive) | > 100 µM (inactive) | – | > 100 µM (inactive)
COc1ccc2c3c([nH]c2c1)[C@H](C=C(C)C)N1C(=O)[C@@H]2CCCN2C(=O)[C@@H]1C3 [FUMITREMORGIN] | 87.5 µM (inactive) | > 100 µM (inactive) | 50.9 µM (inactive) | > 100 µM (inactive) | 44 µM (inactive) | > 100 µM (inactive) | > 100 µM (inactive) | > 100 µM (inactive) | > 100 µM (inactive) | > 100 µM (inactive) | 56 µM (inactive) | 29.6 µM (inactive) | – | 29.1 µM (inactive) | > 100 µM (inactive) | > 100 µM (inactive) | 70.8 µM (inactive) | 29.6 µM (inactive) | 37.2 µM (inactive) | > 100 µM (inactive)
NNC(=O)C1(NC(=O)c2ccccc2)C(c2ccccc2)C(c2ccccc2)=NN1c1ccccc1 (stereo unspecified) | 23.1 µM (inactive) | 12.8 µM (inactive) | – | 33 µM (inactive) | 66.7 µM (inactive) | 12.7 µM (inactive) | > 100 µM (inactive) | 15.6 µM (inactive) | 43.8 µM (inactive) | 18.2 µM (inactive) | 35.5 µM (inactive) | 29.9 µM (inactive) | 24.2 µM (inactive) | 58.2 µM (inactive) | 37 µM (inactive) | 43.3 µM (inactive) | 66.8 µM (inactive) | 44.2 µM (inactive) | 57.1 µM (inactive) | > 100 µM (inactive)
C[C@@H](CCO)OC1OC(COC(=O)C(C)(C)C)C(OC(=O)C(C)(C)C)C(OC(=O)C(C)(C)C)C1OC(=O)C(C)(C)C (stereo partly specified) | 48 µM (inactive) | 27 µM (inactive) | 20.7 µM (inactive) | > 100 µM (inactive) | 50.6 µM (inactive) | 12.9 µM (inactive) | 20.9 µM (inactive) | 5.97 µM (inactive) | 16.1 µM (inactive) | 84.7 µM (inactive) | 34.2 µM (inactive) | 58.7 µM (inactive) | – | 50.7 µM (inactive) | 18 µM (inactive) | 25.5 µM (inactive) | 3.4 µM (inactive) | 33.4 µM (inactive) | 16.6 µM (inactive) | > 100 µM (inactive)
CCCCCCc1cc2cc(C(=O)Nc3cccc(C(F)(F)F)c3)c(=N)oc2cc1O | 1.53 µM (inactive) | 2.32 µM (inactive) | 0.998 µM (active) | 4.27 µM (inactive) | 0.944 µM (active) | 0.586 µM (active) | 1.06 µM (active) | 2.32 µM (inactive) | 0.436 µM (active) | 0.361 µM (active) | 1.56 µM (inactive) | 2.16 µM (inactive) | – | 4.01 µM (inactive) | 1.55 µM (inactive) | 2.44 µM (inactive) | 2.31 µM (inactive) | 1.73 µM (inactive) | 2.74 µM (inactive) | 2.92 µM (inactive)
Cc1n[nH]c(=O)n1/N=C/c1ccc(Cl)cc1 | 56.9 µM (inactive) | 98.4 µM (inactive) | – | > 100 µM (inactive) | 44.9 µM (inactive) | 54.3 µM (inactive) | – | 52.2 µM (inactive) | 59.7 µM (inactive) | 34.4 µM (inactive) | > 100 µM (inactive) | 83.4 µM (inactive) | > 100 µM (inactive) | – | 64.4 µM (inactive) | 81.8 µM (inactive) | – | 78.2 µM (inactive) | > 100 µM (inactive) | 40 µM (inactive)
O=C(CCCn1ccnc1[N+](=O)[O-])NCCn1ccnc1[N+](=O)[O-] | > 100 µM (inactive) | > 100 µM (inactive) | > 100 µM (inactive) | > 100 µM (inactive) | > 100 µM (inactive) | > 100 µM (inactive) | > 100 µM (inactive) | > 100 µM (inactive) | > 100 µM (inactive) | > 100 µM (inactive) | > 100 µM (inactive) | > 100 µM (inactive) | > 100 µM (inactive) | > 100 µM (inactive) | > 100 µM (inactive) | > 100 µM (inactive) | – | > 100 µM (inactive) | > 100 µM (inactive) | –
